Experimental data taken from ChEMBL document CHEMBL6127034, “Design, synthesis and biological evaluation of a novel PAK1 degrader for the treatment of triple negative breast cancer” (Bioorg Med Chem, 2024).

Key:
[1] = molecular target: T1, von Hippel-Lindau disease tumor suppressor/Serine/threonine-protein kinase PAK 1 (Homo sapiens, UniProt Q13153+P40337); assay: PROTAC activity at VHL/PAK1 in human MDA-MB-231 cells assessed as induction of protein degradation at 2.5 uM incubated for 48 hrs by Western blot analysis relative to control; assay type: cell-based
[2] = molecular target: T1, von Hippel-Lindau disease tumor suppressor/Serine/threonine-protein kinase PAK 1; assay: PROTAC activity at VHL/PAK1 in human MDA-MB-231 cells assessed as induction of protein degradation at 0.1 uM incubated for 48 hrs by Western blot analysis relative to control; assay type: cell-based
MDA-MB-231 = assay: Antiproliferative activity against human MDA-MB-231 cells incubated for 48 hrs by MTT assay; assay type: functional, cell-based; conditions: MDA-MB-231, 48 h
[3] = molecular target: T1, von Hippel-Lindau disease tumor suppressor/Serine/threonine-protein kinase PAK 1; assay: PROTAC activity at VHL/PAK1 in human MDA-MB-231 cells assessed as fold change in protein expression at 2.5 uM incubated for 48 hrs by Western blot analysis relative to control; assay type: cell-based
[4] = molecular target: T2, Protein cereblon/Serine/threonine-protein kinase PAK 1 (Homo sapiens) (UniProt Q13153+Q96SW2); assay: PROTAC activity at CRBN/PAK1 in human MDA-MB-231 cells assessed as induction of protein degradation at 2.5 uM incubated for 48 hrs by Western blot analysis relative to control; assay type: cell-based
[5] = molecular target: T2, Protein cereblon/Serine/threonine-protein kinase PAK 1 (Homo sapiens); assay: PROTAC activity at CRBN/PAK1 in human MDA-MB-231 cells assessed as fold change in protein expression at 2.5 uM incubated for 48 hrs by Western blot analysis relative to control; assay type: cell-based

T1 sequence (Q13153 2-545 limits assumed): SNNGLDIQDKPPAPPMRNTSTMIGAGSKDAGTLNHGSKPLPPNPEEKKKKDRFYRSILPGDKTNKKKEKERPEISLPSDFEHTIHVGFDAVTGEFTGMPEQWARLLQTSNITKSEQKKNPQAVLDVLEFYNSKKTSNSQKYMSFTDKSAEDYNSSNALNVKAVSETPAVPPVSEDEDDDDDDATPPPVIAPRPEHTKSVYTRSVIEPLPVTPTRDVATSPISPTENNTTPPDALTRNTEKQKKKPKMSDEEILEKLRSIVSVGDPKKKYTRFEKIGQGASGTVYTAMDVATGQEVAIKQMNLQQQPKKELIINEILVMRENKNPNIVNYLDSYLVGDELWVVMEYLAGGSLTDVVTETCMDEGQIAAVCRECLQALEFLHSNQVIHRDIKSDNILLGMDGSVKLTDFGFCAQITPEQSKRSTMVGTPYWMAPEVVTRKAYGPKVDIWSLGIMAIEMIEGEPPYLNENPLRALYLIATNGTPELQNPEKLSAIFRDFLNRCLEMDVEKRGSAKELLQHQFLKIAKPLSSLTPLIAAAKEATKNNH
T1 sequence (P40337 whole entry partner): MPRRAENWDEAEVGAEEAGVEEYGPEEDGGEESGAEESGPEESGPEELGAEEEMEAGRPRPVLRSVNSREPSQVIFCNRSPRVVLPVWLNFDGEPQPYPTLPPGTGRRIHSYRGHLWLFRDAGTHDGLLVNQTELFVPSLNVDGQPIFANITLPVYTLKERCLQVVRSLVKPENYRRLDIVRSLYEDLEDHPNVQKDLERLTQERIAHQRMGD
T2 sequence (Q13153 whole entry, looked up): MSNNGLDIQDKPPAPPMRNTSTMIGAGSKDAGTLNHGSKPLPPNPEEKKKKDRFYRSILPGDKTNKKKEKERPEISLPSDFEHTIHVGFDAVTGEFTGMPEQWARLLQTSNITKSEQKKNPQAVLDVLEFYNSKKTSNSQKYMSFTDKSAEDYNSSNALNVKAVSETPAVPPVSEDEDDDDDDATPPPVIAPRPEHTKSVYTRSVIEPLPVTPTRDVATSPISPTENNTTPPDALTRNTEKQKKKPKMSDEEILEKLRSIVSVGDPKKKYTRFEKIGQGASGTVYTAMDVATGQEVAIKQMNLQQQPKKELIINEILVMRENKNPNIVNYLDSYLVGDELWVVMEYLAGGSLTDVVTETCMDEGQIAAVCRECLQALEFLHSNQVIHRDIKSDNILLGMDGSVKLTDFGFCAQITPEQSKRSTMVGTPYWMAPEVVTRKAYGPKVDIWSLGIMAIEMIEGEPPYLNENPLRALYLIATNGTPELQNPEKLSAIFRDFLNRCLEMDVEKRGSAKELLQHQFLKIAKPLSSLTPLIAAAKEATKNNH
T2 sequence (Q96SW2 whole entry, looked up): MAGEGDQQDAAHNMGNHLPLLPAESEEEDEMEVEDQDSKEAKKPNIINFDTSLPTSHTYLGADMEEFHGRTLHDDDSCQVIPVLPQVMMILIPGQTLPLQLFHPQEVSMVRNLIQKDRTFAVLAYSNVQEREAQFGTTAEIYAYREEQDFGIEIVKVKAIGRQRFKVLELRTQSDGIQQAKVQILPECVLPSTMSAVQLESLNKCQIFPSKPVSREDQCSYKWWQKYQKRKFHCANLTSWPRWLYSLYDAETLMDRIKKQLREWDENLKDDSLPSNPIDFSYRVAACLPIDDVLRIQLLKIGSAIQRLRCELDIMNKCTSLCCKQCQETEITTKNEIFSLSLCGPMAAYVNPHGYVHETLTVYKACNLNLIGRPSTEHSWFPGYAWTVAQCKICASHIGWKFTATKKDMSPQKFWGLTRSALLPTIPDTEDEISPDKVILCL

Compound | Activity [1] [%] | Activity [2] [%] | IC50 (MDA-MB-231) [µM] | fold change (FC) [3] | Activity [4] [%] | fold change (FC) [5]
Cc1ncsc1-c1ccc([C@H](C)NC(=O)[C@@H]2C[C@@H](O)CN2C(=O)[C@@H](NC(=O)CCc2cn(CCCCCCn3c(=O)c(-c4ccc(Cl)cc4Cl)cc4cnc(NC5CC5)nc43)nn2)C(C)(C)C)cc1 | 67.1 | 39.1 | 3.78 | 0.329 |  | 
Cc1ncsc1-c1ccc([C@H](C)NC(=O)[C@@H]2C[C@@H](O)CN2C(=O)[C@@H](NC(=O)CCCCc2cn(CCOCCOCCOCCn3c(=O)c(-c4ccc(Cl)cc4Cl)cc4cnc(NC5CC5)nc43)nn2)C(C)(C)C)cc1 | 12 |  | > 50 | 0.88 |  | 
Cc1ncsc1-c1ccc([C@H](C)NC(=O)[C@@H]2C[C@@H](O)CN2C(=O)[C@@H](NC(=O)CCc2cn(CCOCCOCCn3c(=O)c(-c4ccc(Cl)cc4Cl)cc4cnc(NC5CC5)nc43)nn2)C(C)(C)C)cc1 | 3.8 |  | > 50 | 0.962 |  | 
CNc1ncc2cc(-c3ccc(Cl)cc3Cl)c(=O)n(CCCCCn3cc(CNc4cccc5c4C(=O)N(C4CCC(=O)NC4=O)C5=O)nn3)c2n1 (configuration not stated) |  |  | > 50 |  | -5.4 | 0.97
Cc1ncsc1-c1ccc([C@H](C)NC(=O)[C@@H]2C[C@@H](O)CN2C(=O)[C@@H](NC(=O)CCCCc2cn(CCCCCCCn3c(=O)c(-c4ccc(Cl)cc4Cl)cc4cnc(NC5CC5)nc43)nn2)C(C)(C)C)cc1 | 18.2 |  | > 50 | 0.812 |  | 
Cc1ncsc1-c1ccc([C@H](C)NC(=O)[C@@H]2C[C@@H](O)CN2C(=O)[C@@H](NC(=O)CCCCc2cn(CCCCCCn3c(=O)c(-c4ccc(Cl)cc4Cl)cc4cnc(NC5CC5)nc43)nn2)C(C)(C)C)cc1 | 24.6 |  | > 50 | 0.754 |  | 
Cc1ncsc1-c1ccc([C@H](C)NC(=O)[C@@H]2C[C@@H](O)CN2C(=O)[C@@H](NC(=O)CCCc2cn(CCCCn3c(=O)c(-c4ccc(Cl)cc4Cl)cc4cnc(NC5CC5)nc43)nn2)C(C)(C)C)cc1 | 32.1 |  | 33.2 | 0.679 |  | 
CNc1ncc2cc(-c3ccc(Cl)cc3Cl)c(=O)n(CCOCCOCCn3cc(CNc4cccc5c4C(=O)N(C4CCC(=O)NC4=O)C5=O)nn3)c2n1 (configuration not stated) |  |  | > 50 |  | 4.1 | 0.959
Cc1ncsc1-c1ccc([C@H](C)NC(=O)[C@@H]2C[C@@H](O)CN2C(=O)[C@@H](NC(=O)CCCCc2cn(CCOCCOCCn3c(=O)c(-c4ccc(Cl)cc4Cl)cc4cnc(NC5CC5)nc43)nn2)C(C)(C)C)cc1 | -4.8 |  | > 50 | 1.05 |  | 
Cc1ncsc1-c1ccc([C@H](C)NC(=O)[C@@H]2C[C@@H](O)CN2C(=O)[C@@H](NC(=O)CCCCc2cn(CCCCn3c(=O)c(-c4ccc(Cl)cc4Cl)cc4cnc(NC5CC5)nc43)nn2)C(C)(C)C)cc1 | 14.4 |  | > 50 | 0.856 |  | 
O=C1CCC(N2C(=O)c3cccc(NCc4cn(CCOCCn5c(=O)c(-c6ccc(Cl)cc6Cl)cc6cnc(NC7CC7)nc65)nn4)c3C2=O)C(=O)N1 (configuration not stated) |  |  | > 50 |  | 1 | 0.99
O=C1CCC(N2C(=O)c3cccc(NCc4cn(CCOCCOCCn5c(=O)c(-c6ccc(Cl)cc6Cl)cc6cnc(NC7CC7)nc65)nn4)c3C2=O)C(=O)N1 (configuration not stated) |  |  | > 50 |  | 23.9 | 1.05
O=C1CCC(N2C(=O)c3cccc(NCc4cn(CCCCCn5c(=O)c(-c6ccc(Cl)cc6Cl)cc6cnc(NC7CC7)nc65)nn4)c3C2=O)C(=O)N1 (configuration not stated) |  |  | > 50 |  | 19.2 | 0.809
Cc1ncsc1-c1ccc([C@H](C)NC(=O)[C@@H]2C[C@@H](O)CN2C(=O)[C@@H](NC(=O)CCCCc2cn(CCOCCn3c(=O)c(-c4ccc(Cl)cc4Cl)cc4cnc(NC5CC5)nc43)nn2)C(C)(C)C)cc1 | 30.1 |  | 35.8 | 0.699 |  | 
O=C1CCC(N2C(=O)c3cccc(NCc4cn(CCCCCCn5c(=O)c(-c6ccc(Cl)cc6Cl)cc6cnc(NC7CC7)nc65)nn4)c3C2=O)C(=O)N1 (configuration not stated) |  |  | 32.1 |  | 34.7 | 0.761
CNc1ncc2cc(-c3ccc(Cl)cc3Cl)c(=O)n(CCOCCOCCOCCn3cc(CNc4cccc5c4C(=O)N(C4CCC(=O)NC4=O)C5=O)nn3)c2n1 (configuration not stated) |  |  | > 50 |  | 1.2 | 0.988
CNc1ncc2cc(-c3ccc(Cl)cc3Cl)c(=O)n(CCOCCn3cc(CNc4cccc5c4C(=O)N(C4CCC(=O)NC4=O)C5=O)nn3)c2n1 (configuration not stated) |  |  | > 50 |  | 8.2 | 0.918
Cc1ncsc1-c1ccc([C@H](C)NC(=O)[C@@H]2C[C@@H](O)CN2C(=O)[C@@H](NC(=O)CCc2cn(CCCCn3c(=O)c(-c4ccc(Cl)cc4Cl)cc4cnc(NC5CC5)nc43)nn2)C(C)(C)C)cc1 | 10.4 |  | > 50 | 0.896 |  | 
Cc1ncsc1-c1ccc([C@H](C)NC(=O)[C@@H]2C[C@@H](O)CN2C(=O)[C@@H](NC(=O)CCCc2cn(CCOCCOCCOCCn3c(=O)c(-c4ccc(Cl)cc4Cl)cc4cnc(NC5CC5)nc43)nn2)C(C)(C)C)cc1 | 5.1 |  | > 50 | 0.949 |  | 
O=C1CCC(N2C(=O)c3cccc(NCc4cn(CCCCn5c(=O)c(-c6ccc(Cl)cc6Cl)cc6cnc(NC7CC7)nc65)nn4)c3C2=O)C(=O)N1 (configuration not stated) |  |  | 34.6 |  | 23.9 | 0.761
Cc1ncsc1-c1ccc([C@H](C)NC(=O)[C@@H]2C[C@@H](O)CN2C(=O)[C@@H](NC(=O)CCCc2cn(CCCCCCn3c(=O)c(-c4ccc(Cl)cc4Cl)cc4cnc(NC5CC5)nc43)nn2)C(C)(C)C)cc1 | 29.1 |  | > 50 | 0.709 |  | 
O=C1CCC(N2C(=O)c3cccc(NCc4cn(CCOCCOCCOCCn5c(=O)c(-c6ccc(Cl)cc6Cl)cc6cnc(NC7CC7)nc65)nn4)c3C2=O)C(=O)N1 (configuration not stated) |  |  | > 50 |  | -6.9 | 1.07
CNc1ncc2cc(-c3ccc(Cl)cc3Cl)c(=O)n(CCCCn3cc(CNc4cccc5c4C(=O)N(C4CCC(=O)NC4=O)C5=O)nn3)c2n1 (configuration not stated) |  |  | > 50 |  | 2.8 | 0.583
Cc1ncsc1-c1ccc([C@H](C)NC(=O)[C@@H]2C[C@@H](O)CN2C(=O)[C@@H](NC(=O)CCCc2cn(CCOCCOCCn3c(=O)c(-c4ccc(Cl)cc4Cl)cc4cnc(NC5CC5)nc43)nn2)C(C)(C)C)cc1 | 2.7 |  | > 50 | 0.973 |  | 
Cc1ncsc1-c1ccc([C@H](C)NC(=O)[C@@H]2C[C@@H](O)CN2C(=O)[C@@H](NC(=O)CCCc2cn(CCOCCn3c(=O)c(-c4ccc(Cl)cc4Cl)cc4cnc(NC5CC5)nc43)nn2)C(C)(C)C)cc1 | 31.7 |  | 27.1 | 0.683 |  | 
Cc1ncsc1-c1ccc([C@H](C)NC(=O)[C@@H]2C[C@@H](O)CN2C(=O)[C@@H](NC(=O)CCc2cn(CCOCCOCCOCCn3c(=O)c(-c4ccc(Cl)cc4Cl)cc4cnc(NC5CC5)nc43)nn2)C(C)(C)C)cc1 | 7.1 |  | > 50 | 0.929 |  | 
Cc1ncsc1-c1ccc([C@H](C)NC(=O)[C@@H]2C[C@@H](O)CN2C(=O)[C@@H](NC(=O)CCc2cn(CCCCCn3c(=O)c(-c4ccc(Cl)cc4Cl)cc4cnc(NC5CC5)nc43)nn2)C(C)(C)C)cc1 | 17.4 |  | > 50 | 0.826 |  | 
